# Data published in patent US4731486A, “Hydroformylation using low volatile phosphine ligands” (Union Carbide Corporation, priority 1986, dated 1988).
# Where a name gives a salt, the structure may show the parent alone.
# Columns and labels:
# [1] = Batch hydroformylation of propylene in stirred autoclave (Examples 1, 2, 11, 14, 19); details: 200 ppm Rh, about 120 mole equivalents ligand, 100° C., 90 psia 1:1:1 H2:CO:C3H6
# Experimental: A series of various rhodium complex catalyst precursor solutions consisting essentially of the solubilized reaction product of rhodium dicarbonyl acetylacetonate and various monosulfonated triphenylphosphine metal salt ligands were prepared and employed to hydroformylate propylene into C4 aldehydes in the following manner.
# Each rhodium catalytic precursor solution so prepared was then employed to hydroformylate propylene in a magnetically stirred, 100 mL capacity, stainless steel autoclave which was attached to a gas manifold for introducing gases to the desired partial pressures. The autoclave was also equipped with a pressure calibrator for determining reaction pressure to ±0.01 psia. and a platinum resistance thermometer for determining reactor solution temperatures to ±0.10° C. The reactor was heated externally by two 300 watt heating bands. The reactor solution temperature was controlled by a platinum resistance sensor connected to an external proportional temperature controller for controlling the temperature of the external band heaters.
# In each non-aqueous hydroformylation reaction, about 15 milliliters (about 14 grams) of the rhodium catalytic precursor solution so prepared was charged to the autoclave reactor under nitrogen and heated to the reaction temperature employed (as given in Table 1 below). The reactor was then vented down to 5 psig. and a premixed gas mixture of 1:1:1 carbon monoxide:hydrogen:propylene was introduced into the reactor via the gas manifold (partial pressures given in Table 1) and the propylene so hydroformylated.
# A comparison of the catalytic activity of aqueous and non-aqueous solutions of monosulfonated triphenylphosphine sodium salt ligand promoted catalysts in hydroformylating various molecular weight alphe-olefins was determined as follows.
# Both the aqueous and non-aqueous hydroformylation reactions were conducted under identical conditions with regard to temperature, rhodium and ligand concentration, hydrogen and carbon monoxide partial pressure and olefin concentration.
# [2] = Continuous hydroformylation of propylene (Example 8); details: Texanol/PEG-600 8:1
# [3] = Solubility of metal salt ligands in different aldehydes; type: physicochemical
# [4] = Solubility of metal salt ligands in nonanal with added solubilizing agent; type: physicochemical; details: 25° C.; nonanal with 1:4 CARBOWAX TPEG-900/TERGITOL NP-9
# [5] = day 1.0, 99 °C, CO 33, H2 53, C3H6 17 psia
# [6] = day 2.0, 106 °C, CO 28, H2 54, C3H6 18 psia
# [7] = day 3.0, […], CO 23, H2 55, C3H6 19 psia
# [8] = day 4.0, […], CO 23, H2 55, C3H6 19 psia
# [9] = day 4.9, 104 °C, CO 23, H2 55, C3H6 19 psia
# [10] = day 5.8, 103 °C, CO 23, H2 55, C3H6 20 psia
# [11] = day 6.7, 98 °C, CO 24, H2 56, C3H6 20 psia
structure (smiles),measurement,setting,value
"O=S(=O)(O)c1cccc(P(c2ccccc2)c2ccccc2)c1 [TPPMS-Rb, monosulfonated triphenylphosphine rubidium salt]",Linear/Branched Aldehyde Mole Ratio,"[1]; Texanol/Carbowax PEG-600: Li 100:0, K 9:1, Rb 8:1, Ca 20:1, Ba 7:1",5.6
same,Reaction Rate (C4 aldehydes),"[1]; Texanol/Carbowax PEG-600: Li 100:0, K 9:1, Rb 8:1, Cs 7:1, Ca 20:1, Ba 7:1, Sr 18:1",0.70 Gmoles/L/Hr
same,Linear/Branched Aldehyde Mole Ratio,[2]; [5],5.15
same,"Rate (C4 aldehydes), daily average",[2]; [5],1.01 gmoles/L/Hr
same,Linear/Branched Aldehyde Mole Ratio,[2]; [6],6.19
same,"Rate (C4 aldehydes), daily average",[2]; [6],1.24 gmoles/L/Hr
same,Linear/Branched Aldehyde Mole Ratio,[2]; [7],5.86
same,"Rate (C4 aldehydes), daily average",[2]; [7],0.68 gmoles/L/Hr
same,Linear/Branched Aldehyde Mole Ratio,[2]; [8],6.04
same,"Rate (C4 aldehydes), daily average",[2]; [8],0.58 gmoles/L/Hr
same,Linear/Branched Aldehyde Mole Ratio,[2]; [9],6.12
same,"Rate (C4 aldehydes), daily average",[2]; [9],0.58 gmoles/L/Hr
same,Linear/Branched Aldehyde Mole Ratio,[2]; [10],6.45
same,"Rate (C4 aldehydes), daily average",[2]; [10],0.58 gmoles/L/Hr
same,Linear/Branched Aldehyde Mole Ratio,[2]; [11],6.60
same,"Rate (C4 aldehydes), daily average",[2]; [11],0.41 gmoles/L/Hr
same,Metal Salt Solubility,"[3]; Butyraldehyde, 60 °C",1.4 Wt. %
same,Metal Salt Solubility,"[3]; Heptanal, 80 °C",3.8 Wt. %
same,Metal Salt Solubility,"[3]; Nonanal, 80 °C",0.9 Wt. %
same,Metal Salt Solubility,"[3]; Propionaldehyde, 35 °C",6.6 Wt. %
same,Metal Salt Solubility,"[3]; Tridecanal, 80 °C",0.5 Wt. %
same,Metal Salt Solubility,"[3]; Valeraldehyde, 80 °C",3.3 Wt. %
same,Metal Salt Solubility,[4],25 Wt. %
